Where two headings read alike, the source gives them in different places.
System: multi-drug resistant strain of Plasmodium yoelii Nigeriensis
Assay: Antimalarial activity against multi-drug resistant P. yoelii in Swiss mice (4-day treatment, observation till day 28)
Type: in vivo
Conditions: for inhibition in vivo at 96 mg/kg/day / responders at 96 mg/kg/day / inhibition in vivo at 24 mg/kg/day / inhibition in vivo at 48 mg/kg/day / responders at 24 mg/kg/day / responders at 48 mg/kg/day: Plasmodium yoelii; for inhibition in vivo at 96 mg/kg/day / inhibition in vivo at 24 mg/kg/day / inhibition in vivo at 48 mg/kg/day: 96 h, read-out: % Suppression on Day 4; for responders at 96 mg/kg/day / responders at 24 mg/kg/day / responders at 48 mg/kg/day: 672 h
Experimental: The antimalarial activity of the test compounds was evaluated in rodent using multi-drug resistant strain of Plasmodium yoelii Nigeriensis in Swiss mice.
Random bred Swiss mice of either sex (20±2 gm) were inoculated intraperitoneally with 1×10^5 P. yoelii (MDR) parasites on day zero. The treatments with test compounds were administered to group of 5 mice each at different dose levels ranging between 24-96 mg/kg/day. The treatment was administered in groundnut oil intramuscularly and orally for 4 consecutive days (day 0-3). Blood smears from experimental mice were observed on day 4 and 7, day 10 and thereafter at regular intervals till day 28 or death of the animal. The parasitaemia level on day 4 was compared with vehicle control group and the percent suppression of parasitaemia in treated groups were calculated.
The dose at which no parasitaemia develop during the observation period has been reported as the curative dose.

[1] = Swiss mice, 96 mg/kg/day, i.m., in groundnut oil, days 0-3
[2] = Swiss mice, 24 mg/kg/day, oral, in groundnut oil, days 0-3
[3] = Swiss mice, 48 mg/kg/day, oral, in groundnut oil, days 0-3
[4] = Swiss mice, 96 mg/kg/day, oral, in groundnut oil, days 0-3
[5] = Swiss mice, 96 mg/kg/day, oral, in groundnut oil, days 0-3, read-out: Mice alive on day-28 (converted)
[6] = im, Swiss mice, 96 mg/kg/day, i.m., in groundnut oil, days 0-3
[7] = im, Swiss mice, 96 mg/kg/day, i.m., in groundnut oil, days 0-3, read-out: Mice alive on day-28 (converted)
[8] = Swiss mice, 24 mg/kg/day, oral, in groundnut oil, days 0-3, read-out: Mice alive on day-28 (converted)
[9] = Swiss mice, 48 mg/kg/day, oral, in groundnut oil, days 0-3, read-out: Mice alive on day-28 (converted)
[10] = im, Swiss mice, 48 mg/kg/day, i.m., in groundnut oil, days 0-3
[11] = im, Swiss mice, 48 mg/kg/day, i.m., in groundnut oil, days 0-3, read-out: Mice alive on day-28 (converted)
[12] = po, read-out: Mice alive on day-28

C=C(c1ccccc1)C1COC2(CCC(=O)CC2)OO1 (centres unmarked) [Compound 3a, 3-(1-Phenyl-vinyl)-1,2,5-trioxaspiro[5.5]undec-9-one]
% Suppression on Day 4 [1]: 99% | Mice alive on day-28 [1]: 0/5

CCO[C@H]1O[C@@H]2O[C@@]3(C)CC[C@H]4[C@H](C)CC[C@@H]([C@H]1C)[C@@]24OO3 [β-Arteether, reference compound]
% Suppression on Day 4 [2]: 100% | Mice alive on day-28 [2]: 1/5 | % Suppression on Day 4 [3]: 100% | Mice alive on day-28 [3]: 5/5

C=C(c1cccc2ccccc12)C1COC2(CCC(=O)CC2)OO1 (centres unmarked) [Compound 3g, 3-(1-Naphthalen-1-yl-vinyl)-1,2,5-trioxa-spiro [5.5]undecan-9-one]
inhibition in vivo at 96 mg/kg/day [4]: 100% | responders at 96 mg/kg/day [5]: 20%

C=C(c1ccc(OC)cc1)C1COC2(CCC(=CC(=O)OCC)CC2)OO1 (centres unmarked) [Compound 4ad, {3-[1-(4-Methoxy-phenyl)-vinyl]-1,2,5-trioxa-spiro[5.5]undec-9-ylidene}-acetic acid ethyl ester]
inhibition in vivo at 96 mg/kg/day [4]: 100% | responders at 96 mg/kg/day [5]: 100% | inhibition in vivo at 96 mg/kg/day [6]: 100% | responders at 96 mg/kg/day [7]: 40%

C=C(c1ccc(-c2ccccc2)cc1)C1COC2(CCC(=C(C)C(=O)OCC)CC2)OO1 (centres unmarked) [Compound 4bb, 2-[3-(1-Biphenyl-4-yl-vinyl)-1,2,5-trioxa-spiro [5.5]undec-9-ylidene]-propionic acid ethyl ester]
inhibition in vivo at 96 mg/kg/day [4]: 100% | responders at 96 mg/kg/day [5]: 60%

C=C(c1ccc(C2CCCCC2)cc1)C1COC2(CCC(=O)CC2)OO1 (centres unmarked) [Compound 3f, 3-[1-(4-Cyclohexyl-phenyl)-vinyl]-1,2,5-trioxa-spiro[5.5]undecan-9-one]
inhibition in vivo at 96 mg/kg/day [4]: 100% | responders at 96 mg/kg/day [5]: 60% | inhibition in vivo at 96 mg/kg/day [6]: 100% | responders at 96 mg/kg/day [7]: 40%

C=C(c1cccc2ccccc12)C1COC2(CCC(=CC(=O)OCC)CC2)OO1 (centres unmarked) [Compound 4ag, [3-(1-Naphthalen-1-yl-vinyl)-1,2,5-trioxa-spiro[5.5]undec-9-ylidene]-acetic acid ethyl ester]
inhibition in vivo at 96 mg/kg/day [6]: 100% | responders at 96 mg/kg/day [7]: 100%

C=C(c1ccc(Cl)cc1)C1COC2(CCC(=CC(=O)OCC)CC2)OO1 (centres unmarked) [Compound 4ac, {3-[1-(4-Chloro-phenyl)-vinyl]-1,2,5-trioxa-spiro[5.5]undec-9-ylidene}-acetic acid ethyl ester]
inhibition in vivo at 24 mg/kg/day [2]: 100% | inhibition in vivo at 48 mg/kg/day [3]: 100% | responders at 24 mg/kg/day [8]: 60% | responders at 48 mg/kg/day [9]: 100% | inhibition in vivo at 48 mg/kg/day [10]: 100% | inhibition in vivo at 96 mg/kg/day [6]: 100% | responders at 48 mg/kg/day [11]: 60% | responders at 96 mg/kg/day [7]: 100%

C=C(c1ccc(Cl)cc1)C1COC2(CCC(=O)CC2)OO1 (centres unmarked) [Compound 3c, 3-[1-(4-Chloro-phenyl)-vinyl]-1,2,5-trioxa-spiro[5.5]undecan-9-one]
inhibition in vivo at 96 mg/kg/day [4]: 100% | responders at 96 mg/kg/day [5]: 0%

CCN(CC)CCCC(C)Nc1ccnc2cc(Cl)ccc12 (centres unmarked) [Chloroquine, reference compound]
inhibition in vivo at 24 mg/kg/day (po): 100% | inhibition in vivo at 48 mg/kg/day (po): 100% | responders at 24 mg/kg/day [12]: 0% | responders at 48 mg/kg/day [12]: 40%

C=C(c1ccc(-c2ccccc2)cc1)C1COC2(CCC(=CC(=O)OCC)CC2)OO1 (centres unmarked) [Compound 4ab, [3-(1-Biphenyl-4-yl-vinyl)-1,2,5-trioxa-spiro[5.5]undec-9-ylidene]-acetic acid ethyl ester]
inhibition in vivo at 96 mg/kg/day [4]: 100% | responders at 96 mg/kg/day [5]: 100%

C=C(c1ccc(C2CCCCC2)cc1)C1COC2(CCC(=CC(=O)OCC)CC2)OO1 (centres unmarked) [Compound 4af, {3-[1-(4-Cyclohexyl-phenyl)-vinyl]-1,2,5-trioxa-spiro[5.5]undec-9-ylidene}-acetic acid ethyl ester]
inhibition in vivo at 48 mg/kg/day [3]: 100% | inhibition in vivo at 96 mg/kg/day [4]: 100% | responders at 48 mg/kg/day [9]: 60% | responders at 96 mg/kg/day [5]: 80%

C=C(c1ccccc1)C1COC2(CCC(=CC(=O)OCC)CC2)OO1 (centres unmarked) [Compound 4aa, [3-(1-Phenyl-vinyl)-1,2,5-trioxa-spiro[5.5]undec-9-ylidene]-acetic acid ethyl ester]
inhibition in vivo at 48 mg/kg/day [3]: 100% | responders at 48 mg/kg/day [9]: 100% | inhibition in vivo at 96 mg/kg/day [6]: 99% | responders at 96 mg/kg/day [7]: 40%

C=C(c1ccc2ccccc2c1)C1COC2(CCC(=CC(=O)OCC)CC2)OO1 (centres unmarked) [Compound 4ah, [3-(1-Naphthalen-2-yl-vinyl)-1,2,5-trioxa-spiro[5.5]undec-9-ylidene]-acetic acid ethyl ester]
inhibition in vivo at 24 mg/kg/day [2]: 100% | inhibition in vivo at 48 mg/kg/day [3]: 100% | responders at 24 mg/kg/day [8]: 20% | responders at 48 mg/kg/day [9]: 100% | inhibition in vivo at 96 mg/kg/day [6]: 88% | responders at 96 mg/kg/day [7]: 40%

C=C(c1ccc(C2CCCCC2)cc1)C1COC2(CCC(=C(C)C(=O)OCC)CC2)OO1 (centres unmarked) [Compound 4bf, 2-{3-[1-(4-Cyclohexyl-phenyl)-vinyl]-1,2,5-trioxa-spiro[5.5]undec-9-ylidene}-propionic acid ethyl ester]
inhibition in vivo at 96 mg/kg/day [4]: 100% | responders at 96 mg/kg/day [5]: 40%

C=C(c1ccc(C)cc1)C1COC2(CCC(=CC(=O)OCC)CC2)OO1 (centres unmarked) [Compound 4ae, [3-(1-p-Tolyl-vinyl)-1,2,5-trioxa-spiro[5.5]undec-9-ylidene]-acetic acid ethyl ester]
inhibition in vivo at 24 mg/kg/day [2]: 100% | inhibition in vivo at 48 mg/kg/day [3]: 100% | responders at 24 mg/kg/day [8]: 60% | responders at 48 mg/kg/day [9]: 100% | inhibition in vivo at 48 mg/kg/day [10]: 100% | inhibition in vivo at 96 mg/kg/day [6]: 100% | responders at 48 mg/kg/day [11]: 40% | responders at 96 mg/kg/day [7]: 100%

C=C(c1ccc(-c2ccccc2)cc1)C1COC2(CCC(=O)CC2)OO1 (centres unmarked) [Compound 3b, 3-(1-Biphenyl-4yl-vinyl)-1,2,5-trioxaspiro[5.5]undec-9-one]
% Suppression on Day 4 [1]: 100% | Mice alive on day-28 [1]: 1/5

Reference: patent US7495025B2, “Spiro-1,2,4-trioxanes” (Council of Scientific and Industrial Research, priority 2005, dated 2009)
